# Results: US11186627B2 (priority 2013, dated 2021)
# “And” between values parts separate entries of the source, which are not always exact repeats. Identical values can stand only once.
# What was measured:
# [1] = system: A/California/7/09 (H1N1) (H1-CA09); details: mouse, in vivo
# [2] = system: ANN/1203/04 (H5N1) highly pathogenic avian influenza virus; set-up: species or system ferret; details: in vivo, 25 mg/kg
smiles,measurement,setting,value
CCOC(=O)C1=C[C@@H](OC(CC)CC)[C@H](NC(C)=O)[C@@H](N)C1 [oseltamivir],survival,[1],succumbed to the infection
same,mean day of death,[2],12 and 9
same,survival rate,[2],100%
